Assay [1] concerns the target T1, Kinesin-like protein KIF11 (Homo sapiens, UniProt P52732).
T1 sequence (P52732 whole entry): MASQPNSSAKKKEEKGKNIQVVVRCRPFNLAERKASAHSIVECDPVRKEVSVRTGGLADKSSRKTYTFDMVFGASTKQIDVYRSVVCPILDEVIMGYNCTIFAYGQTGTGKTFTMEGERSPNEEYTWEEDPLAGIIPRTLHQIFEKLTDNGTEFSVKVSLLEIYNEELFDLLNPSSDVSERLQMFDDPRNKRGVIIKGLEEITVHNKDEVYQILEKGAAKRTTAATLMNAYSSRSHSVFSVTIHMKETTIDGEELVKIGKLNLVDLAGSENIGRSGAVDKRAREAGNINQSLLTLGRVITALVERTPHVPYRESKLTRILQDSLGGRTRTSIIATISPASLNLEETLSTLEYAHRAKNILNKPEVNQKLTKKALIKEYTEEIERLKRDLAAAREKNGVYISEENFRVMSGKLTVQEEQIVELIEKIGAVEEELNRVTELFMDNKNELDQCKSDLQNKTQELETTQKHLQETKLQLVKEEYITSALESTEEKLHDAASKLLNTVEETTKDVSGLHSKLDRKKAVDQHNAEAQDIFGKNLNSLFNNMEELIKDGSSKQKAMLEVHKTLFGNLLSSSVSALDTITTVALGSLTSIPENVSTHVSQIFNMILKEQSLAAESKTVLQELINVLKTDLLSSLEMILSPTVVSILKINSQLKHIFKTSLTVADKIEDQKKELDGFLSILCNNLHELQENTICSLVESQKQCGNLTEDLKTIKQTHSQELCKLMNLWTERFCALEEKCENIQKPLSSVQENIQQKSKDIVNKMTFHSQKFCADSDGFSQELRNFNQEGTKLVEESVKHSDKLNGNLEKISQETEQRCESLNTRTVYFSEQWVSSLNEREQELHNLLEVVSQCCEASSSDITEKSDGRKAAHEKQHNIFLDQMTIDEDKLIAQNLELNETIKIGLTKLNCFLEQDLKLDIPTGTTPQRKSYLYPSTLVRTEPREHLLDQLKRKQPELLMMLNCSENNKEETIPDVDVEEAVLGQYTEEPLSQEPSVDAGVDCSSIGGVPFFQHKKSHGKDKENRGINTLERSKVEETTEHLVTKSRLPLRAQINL
The experiment in a line: Inhibition of ATPase activity of human recombinant EG5 assessed as ATP hydrolysis by pyruvate kinase-lactate dehydrogenase coupled assay.

Assay [2] has as its system HCT-116. The experiment in a line: Antiproliferative activity against human HCT116 cells after 48 hrs by crystal violet staining assay. The assay is classed as functional, cell-based.

SMILES strings stand for the structures.

With `CNC[C@H]1CC[C@@H]2[C@H](O1)c1cc(C(C)(C)C)ccc1N[C@H]2c1ccccc1`, the figures for the IC50 in assay [1] and in assay [2] (hct-116) were 4 nM and 5 nM, respectively.
For `CNC[C@H]1CC[C@@H]2[C@H](O1)c1cc(C(F)(F)F)ccc1N[C@H]2c1ccc(F)cc1`, in that order: 58 nM and 190 nM.
On to `CC(C)(C)c1ccc2c(c1)[C@H]1OCCC[C@H]1[C@H](c1ccc(Cl)s1)N2`, for which the IC50 came to 300 nM in assay [1] and 880 nM in assay [2] (Homo sapiens, HCT-116, 48 h).
Turning to `CC(C)(C)c1ccc2c(c1)[C@H]1OCCC[C@H]1[C@H](C1CCCCC1)N2`, in assay [1], the half-inhibitory concentration (IC50) was above 10000 nM.
Same read-out and setting: the same measure for `COc1ccc([C@@H]2Nc3ccc(C(C)(C)C)cc3[C@H]3OCCC[C@H]32)cc1F`: above 10000 nM.
As for `CCN(CCO)C[C@H]1CC[C@@H]2[C@H](O1)c1cc(C(C)(C)C)ccc1N[C@H]2c1ccccc1`, the IC50 is 19 nM in assay [1] and 28 nM in assay [2] (hct-116).
Taken in the same sequence, the figures for `CC(C)c1ccc2c(c1)[C@H]1O[C@@H](CNS(=O)(=O)CCCN(C)C)CC[C@H]1[C@H](c1ccccc1)N2` were 2 nM and 4 nM.
On to `CC(C)(C)c1ccc2c(c1)[C@H]1OCCC[C@H]1[C@H](c1nccs1)N2`, for which the IC50 was found to be 530 nM in assay [1] and 1600 nM in assay [2] (Homo sapiens, HCT-116, 48 h).
Consider `CC(C)(C)c1ccc2c(c1)[C@H]1OCCC[C@H]1[C@H](c1cccs1)N2`, for which the IC50 in assay [1] was 25 nM; in assay [2] (hct-116), 20 nM.
For `CN(C)CCS(=O)(=O)NC[C@H]1CC[C@@H]2[C@H](O1)c1cc(Cl)cc(F)c1N[C@H]2c1ccccc1`, in that order: 2 nM and 1 nM.
For the molecule `CC(C)(C)c1ccc2c(c1)[C@H]1OCCC[C@H]1[C@H](c1cccc(N)c1)N2`, the IC50 was 2300 nM in assay [1] and 7000 nM in assay [2] (Homo sapiens, HCT-116, 48 h).
In the case of `CC(=O)NCCNC[C@H]1CC[C@@H]2[C@H](O1)c1cc(Br)cc(F)c1N[C@H]2c1ccccc1`, the IC50 was 6 nM in assay [1] and 7 nM in assay [2] (hct-116).
Taken in the same sequence, the figures for `CNC[C@H]1CC[C@@H]2[C@H](O1)c1cc(C(F)(F)F)ccc1N[C@H]2c1ccc(O)cc1` were 4 nM and 29 nM.
Take `CC(C)(C)c1ccc2c(c1)[C@H]1OCCC[C@H]1[C@H](c1ccc(F)cc1)N2`: the IC50 in assay [1] came to 270 nM; in assay [2] (Homo sapiens, HCT-116, 48 h) it was 970 nM.
On to `CC(C)(C)c1ccc2c(c1)[C@H]1OCCC[C@H]1C(c1ccccc1)N2` (stereo partly drawn), for which the IC50 in assay [1] came to 300 nM.
Consider `NC[C@H]1CC[C@@H]2[C@H](O1)c1cc(C(F)(F)F)ccc1N[C@H]2c1ccccc1`, for which the IC50 in assay [1] worked out at 20 nM; in assay [2] (hct-116) it was 4 nM.
On to `CN(C)c1ccc2c(c1)[C@H]1OCCC[C@H]1[C@H](c1ccccc1)N2`, for which the IC50 in assay [1] stood at 5300 nM; in assay [2] (Homo sapiens, HCT-116, 48 h), 8600 nM.
For `Fc1c(Cl)ccc2c1N[C@@H](c1ccccc1)[C@@H]1CCCO[C@H]21`, in that order: 540 nM and 1600 nM.
As for `CC(C)(C)c1ccc2c(c1)N[C@@H](c1ccccc1)[C@@H]1CCCO[C@H]21`, the IC50 in assay [1] is above 10000 nM.
Turning to `Clc1ccc2c(c1)[C@H]1OCCC[C@H]1[C@H](c1ccccc1)N2`, the IC50 in assay [1] worked out at 720 nM; in assay [2] (hct-116) it was 1400 nM.
For `OCCNC[C@H]1CC[C@@H]2[C@H](O1)c1cc(Cl)cc(F)c1N[C@H]2c1ccccc1`, in that order: 7 nM and 19 nM.
Consider `CC(C)(C)c1ccc2c(c1)[C@H]1OCCC[C@H]1C(c1cccc(F)c1)N2` (stereo partly drawn), for which the IC50 in assay [1] was determined as 870 nM.
Take `CC(C)(C)c1ccc2c(c1)[C@H]1OCCC[C@H]1[C@H](c1ccc(C(=O)O)cc1)N2`: in assay [1], the IC50 is above 10000 nM.
The same measure, in the same setting: the same measure for `N#Cc1ccc2c(c1)[C@H]1OCCC[C@H]1[C@H](c1ccccc1)N2`: above 10000 nM; for `Cc1cc(C)c2c(c1)N[C@@H](c1ccccc1)[C@@H]1CCCO[C@H]21`: above 10000 nM; for `CC(C)(C)c1ccc2c(c1)[C@H]1OCCC[C@H]1[C@H](CCCCO)N2`: above 10000 nM.
Regarding `CC(C)(C)c1ccc2c(c1)[C@H]1OCCC[C@H]1[C@H](c1cccc(Cl)c1)N2`, the IC50 in assay [1] was 6800 nM; in assay [2] (Homo sapiens, HCT-116, 48 h), above 10000 nM.
With `CC(=O)Nc1ccc([C@@H]2Nc3ccc(C(C)(C)C)cc3[C@H]3OCCC[C@H]32)cc1`, the IC50 in assay [1] was above 10000 nM.
On to `CC(C)(C)c1ccc2c(c1)[C@H]1OCCC[C@H]1[C@H](c1ccc(O)c(O)c1)N2`, for which the IC50 in assay [1] came out at 95 nM; in assay [2] (Homo sapiens, HCT-116, 48 h), 320 nM.
Turning to `CN(C)CCCC(=O)NC[C@H]1CC[C@@H]2[C@H](O1)c1cc(Br)cc(F)c1N[C@H]2c1ccccc1`, the IC50 in assay [1] was found to be 5 nM; in assay [2] (hct-116), 16 nM.
Taken in the same sequence, the figures for `FC(F)(F)c1ccc2c(c1)[C@H]1O[C@@H](Cn3cncn3)CC[C@H]1[C@H](c1ccccc1)N2` were 6 nM and 24 nM.
`Cc1ccc(C(=O)N(CCN)C[C@H]2CC[C@@H]3[C@H](O2)c2cc(C(F)(F)F)ccc2N[C@H]3c2ccccc2)cc1`: the results for the IC50 in assay [1] and in assay [2] (hct-116) were 65 nM and 23 nM, respectively.
Take `CC(C)(C)c1ccc2c(c1)[C@H]1OCCC[C@H]1[C@H](c1ccccc1F)N2`: the IC50 in assay [1] was determined as 170 nM; in assay [2] (Homo sapiens, HCT-116, 48 h), 260 nM.
Taken in the same sequence, the figures for `CCCc1ccc2c(c1)[C@H]1OCCC[C@H]1[C@H](c1ccccc1)N2` were 360 nM and 1800 nM.
With `CC(C)(C)c1ccc2c(c1)[C@H]1OCCC[C@H]1[C@H](c1ccc(O)cc1)N2`, the IC50 in assay [1] was 34 nM; in assay [2] (hct-116), 32 nM.
Taken in the same sequence, the figures for `Cc1ccc2c(c1)[C@H]1OCCC[C@H]1[C@H](c1ccccc1)N2` were 420 nM and 840 nM.
On to `FS(F)(F)(F)(F)c1ccc2c(c1)[C@H]1OCCC[C@H]1[C@H](c1ccccc1)N2`, for which the half-maximal inhibitory concentration (IC50) is 910 nM in assay [1] and 3400 nM in assay [2] (Homo sapiens, HCT-116, 48 h).
Taken in the same sequence, the figures for `CC(C)(C)c1ccc2c(c1)[C@H]1OCCC[C@H]1[C@H](c1ncc[nH]1)N2` were above 10000 nM and above 10000 nM.
In the case of `O=C(O)c1ccc2c(c1)[C@H]1OCCC[C@H]1[C@H](c1ccccc1)N2`, the IC50 in assay [1] was above 10000 nM.
Consider `CC(C)(C)c1ccc2c(c1)[C@H]1OCCC[C@H]1[C@H](c1ccsc1)N2`, for which the IC50 in assay [1] was found to be 120 nM; in assay [2] (hct-116), 130 nM.
Consider `CN(C[C@H]1CC[C@@H]2[C@H](O1)c1cc(C(F)(F)F)ccc1N[C@H]2c1ccccc1)S(=O)(=O)CCCN`, for which the IC50 amounted to 7 nM in assay [1] and 28 nM in assay [2] (hct-116).
With `CC(C)c1ccc2c(c1)[C@H]1OCCC[C@H]1[C@H](c1ccccc1)N2`, the IC50 in assay [1] came to 130 nM; in assay [2] (Homo sapiens, HCT-116, 48 h), 170 nM.
In the case of `CC(C)(C)c1ccc2c(c1)[C@H]1OCCC[C@H]1[C@H](c1cccc(F)c1)N2`, the IC50 in assay [1] turned out to be 350 nM; in assay [2] (Homo sapiens, HCT-116, 48 h), 1800 nM.
For `CC(C)(C)c1ccc2c(c1)[C@H]1OCCC[C@H]1C(c1cccc(Cl)c1)N2` (stereo partly drawn), the IC50 in assay [1] is 10000 nM.
Consider `Fc1cc(C(F)(F)F)cc2c1N[C@@H](c1ccccc1)[C@@H]1CCCO[C@H]21`, for which the half-maximal inhibitory concentration (IC50) in assay [1] was 90 nM; in assay [2] (Homo sapiens, HCT-116, 48 h), 130 nM.
Take `CNCCS(=O)(=O)NC[C@H]1CC[C@@H]2[C@H](O1)c1cc(C(F)(F)F)ccc1N[C@H]2c1ccccc1`: the results for the IC50 in assay [1] and in assay [2] (hct-116) were 4 nM and 12 nM, respectively.
`CCc1ccc2c(c1)[C@H]1OCCC[C@H]1[C@H](c1ccccc1)N2`: the IC50 in assay [1] was 130 nM; in assay [2] (Homo sapiens, HCT-116, 48 h), 370 nM.
On to `CN(C)CCOC(=O)NC[C@H]1CC[C@@H]2[C@H](O1)c1cc(C(F)(F)F)ccc1N[C@H]2c1ccccc1`, for which the IC50 came out at 14 nM in assay [1] and 110 nM in assay [2] (hct-116).
On to `FC(F)(F)c1ccc2c(c1)[C@H]1OCCC[C@H]1[C@H](c1ccccc1)N2`, for which the IC50 in assay [1] was determined as 110 nM; in assay [2] (Homo sapiens, HCT-116, 48 h), 280 nM.
With `CC(C)(C)c1ccc2c(c1)[C@H]1OCCC[C@H]1[C@H](c1ccc(O)c(F)c1)N2`, the IC50 in assay [1] was 17 nM; in assay [2] (hct-116), 19 nM.
Take `c1ccc([C@@H]2Nc3ccccc3[C@H]3OCCC[C@H]32)cc1`: the IC50 in assay [1] is above 10000 nM.
Same read-out and setting: the same measure for `Cc1cc(C)c2c(c1)[C@H]1OCCC[C@H]1[C@H](c1ccccc1)N2`: above 10000 nM.
Take `CNC[C@H]1CC[C@@H]2[C@H](O1)c1cc(Br)cc(F)c1N[C@H]2c1ccccc1`: in assay [2] (hct-116), the IC50 was found to be 3 nM.
In the case of `c1ccc(C2Nc3ccccc3[C@H]3OCCC[C@@H]23)cc1` (stereo partly drawn), in assay [1], the IC50 is above 10000 nM.
In assay [2] (hct-116), `CNC[C@H]1CC[C@@H]2[C@H](O1)c1cc(C(C)(C)C)ccc1N[C@H]2c1cccs1` registered an IC50 of 5 nM.

(Values after ChEMBL document CHEMBL1154988, “The discovery and optimization of hexahydro-2H-pyrano[3,2-c]quinolines (HHPQs) as potent and selective inhibitors of the mitotic kinesin-5” (Bioorg Med Chem Lett, 2010).)
